The results in this text go back to patent US8846951B2 (AbbVie Inc., priority 2009, dated 2014).

The structures appear in SMILES notation. Where two headings read alike, the source gives them in different places.

The target in one experiment is T1, 5HT2C receptors (Homo sapiens, UniProt P28335).
T1 sequence (P28335 33-458): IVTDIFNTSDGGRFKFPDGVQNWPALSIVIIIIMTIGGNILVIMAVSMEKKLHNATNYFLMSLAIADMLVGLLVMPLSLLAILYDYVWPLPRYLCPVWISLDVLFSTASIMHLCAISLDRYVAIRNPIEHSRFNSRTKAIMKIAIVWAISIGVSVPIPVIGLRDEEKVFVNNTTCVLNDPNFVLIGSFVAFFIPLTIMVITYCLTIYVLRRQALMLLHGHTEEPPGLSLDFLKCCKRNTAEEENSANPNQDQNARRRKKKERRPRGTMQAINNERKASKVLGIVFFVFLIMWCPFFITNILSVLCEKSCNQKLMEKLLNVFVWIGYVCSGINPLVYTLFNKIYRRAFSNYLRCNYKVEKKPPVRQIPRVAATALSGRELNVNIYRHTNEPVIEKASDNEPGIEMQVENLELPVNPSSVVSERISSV
The experiment in a line: Human 5-HT2C functional high throughput screening assay in CHO-K1 cells (calcium flux). The arrangement: expressed in transfected cells; host or cells: CHO-K1 cells. The following applies: for EC50: CHO-K1 cells, calcium flux; for Emax: CHO-K1, 5-HT2C, maximum functional response as percentage relative to the effect of serotonin. It counts as cell-based. In short, it runs like this:
(§1)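 Serum-starved CHO-K1 cells carrying the receptor; Ca4 dye, 60 min RT. Test compound added after a 10 s baseline, fluorescence followed for 3 min. EC50 from 4-parameter fit; Emax given as % of serotonin effect.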
(In general: Calcium assays in cells follow changes in intracellular calcium, usually with a dye or a luminescent sensor.)

The target of another experiment is T2, 5HT2B receptors (Homo sapiens, UniProt P41595).
T2 construct: expressed in transfected cells; host or cells: CHO-K1 cells
Put plainly: Human 5-HT2B functional high throughput screening assay in CHO-K1 cells (calcium flux). The class given is cell-based. The following applies: for EC50: CHO-K1 cells, calcium flux. A digest of the protocol: as §1

[1] abbreviates: 5-HT2C agonist activity, read-out: EC50.
Where [2] appears, read: 5-HT2B agonist activity, read-out: EC50.
The mark [3] stands for this setting: 5-HT2B, maximum functional response as percentage relative to the effect of serotonin.

A word on the EC50: it is the concentration needed to bring the measured effect to its halfway point. By Emax is commonly meant the size of the effect at its maximum, as opposed to the concentration needed.

T2 sequence (P41595 whole entry): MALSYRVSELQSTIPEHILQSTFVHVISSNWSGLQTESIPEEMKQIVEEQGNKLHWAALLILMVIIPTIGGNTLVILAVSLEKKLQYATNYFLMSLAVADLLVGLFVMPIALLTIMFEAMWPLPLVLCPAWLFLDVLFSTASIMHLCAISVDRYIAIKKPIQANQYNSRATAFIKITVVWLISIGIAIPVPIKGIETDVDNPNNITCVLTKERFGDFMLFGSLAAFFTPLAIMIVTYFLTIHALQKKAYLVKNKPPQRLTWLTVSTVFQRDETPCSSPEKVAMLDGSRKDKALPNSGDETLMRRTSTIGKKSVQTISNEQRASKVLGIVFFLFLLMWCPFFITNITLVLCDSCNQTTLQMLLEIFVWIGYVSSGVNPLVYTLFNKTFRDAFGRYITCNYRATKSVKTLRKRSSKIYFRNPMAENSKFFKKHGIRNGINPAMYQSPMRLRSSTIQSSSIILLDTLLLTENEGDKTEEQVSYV

In the case of `COc1ccc2c(c1)C(=O)NC[C@@H]1CNC[C@H]21` (relative stereo) [Example 135, Cis-8-methoxy-1,2,3,3a,4,5-hexahydrobenzo[e]pyrrolo[3,4-c]azepin-6(10bH)-one], the EC50 on 5HT2C receptors (setting [1]) is 800 nM; at 5HT2B receptors (setting [2]), over 10000 nM. The Emax at 5HT2C receptors is over 120%; at 5HT2B receptors (setting [3]), “inactive”.
As for `O=C1NC[C@@H]2CN(Cc3ccccc3)C[C@H]2c2ccc(-c3nnco3)cc21` (relative stereo) [Example 136, Trans-2-benzyl-8-(1,3,4-oxadiazol-2-yl)-1,2,3,3a,4,5-hexahydrobenzo[e]pyrrolo[3,4-c]azepin-6(10bH)-one], the EC50 at 5HT2C receptors (setting [1]) is 2000 nM; at 5HT2B receptors (setting [2]) it was over 10000 nM. The Emax at 5HT2C receptors (read-out: Emax) was 110%; on 5HT2B receptors (setting [3]) it was “inactive”.
For `COc1ccccc1-c1ccc2c(c1)C(=O)NC[C@@H]1CN(C)C[C@@H]21` (relative stereo) [Example 137, Trans-8-(2-methoxyphenyl)-2-methyl-1,2,3,3a,4,5-hexahydrobenzo[e]pyrrolo[3,4-c]azepin-6(10bH)-one], the EC50 was 100 nM on 5HT2C receptors (setting [1]) and over 10000 nM on 5HT2B receptors (setting [2]). For the same compound, the figures for the Emax on 5HT2C receptors (read-out: Emax) and on 5HT2B receptors (setting [3]) were over 120% and “inactive”, respectively.
Consider `CC(C)c1ccc(-c2ccc3c(c2)C(=O)NC[C@@H]2CN(C)C[C@@H]32)cc1` (relative stereo) [Example 138, Trans-8-(4-isopropylphenyl)-2-methyl-1,2,3,3a,4,5-hexahydrobenzo[e]pyrrolo[3,4-c]azepin-6(10bH)-one], for which the figures for the EC50 on 5HT2C receptors (setting [1]) and at 5HT2B receptors (setting [2]) were 100 nM and over 10000 nM, respectively. The values for the maximal response (Emax) on 5HT2C receptors (read-out: Emax) and at 5HT2B receptors (setting [3]) were over 120% and “inactive”, respectively.
Taken in the same sequence, the figures for `CCc1ccc(-c2ccc3c(c2)C(=O)NC[C@@H]2CN(C)C[C@@H]32)cc1` (relative stereo) [Example 139, Trans-8-(4-ethylphenyl)-2-methyl-1,2,3,3a,4,5-hexahydrobenzo[e]pyrrolo[3,4-c]azepin-6(10bH)-one] were 30 nM, over 10000 nM, over 120% and “inactive”.
The like results for `CN1C[C@H]2CNC(=O)c3cc(-c4ccc(OC(F)(F)F)cc4)ccc3[C@@H]2C1` (relative stereo) [Example 140, Trans-2-methyl-8-(4-(trifluoromethoxy)phenyl)-1,2,3,3a,4,5-hexahydrobenzo[e]pyrrolo[3,4-c]azepin-6(10bH)-one] were, in that order, 60 nM, over 10000 nM, over 120% and “inactive”.
The like results for `Nc1ccc2c(c1)C(=O)NC[C@@H]1CN(Cc3ccccc3)C[C@@H]21` (relative stereo) [Example 141, Trans-8-amino-2-benzyl-1,2,3,3a,4,5-hexahydrobenzo[e]pyrrolo[3,4-c]azepin-6(10bH)-one] were, in that order, 600 nM, over 10000 nM, over 120% and “inactive”.
Turning to `Nc1ccc2c(c1)C(=O)NC[C@@H]1CN(Cc3ccccc3)C[C@H]21` (relative stereo) [Example 142, Cis-8-amino-2-benzyl-1,2,3,3a,4,5-hexahydrobenzo[e]pyrrolo[3,4-c]azepin-6(10bH)-one], the EC50 was 2000 nM on 5HT2C receptors (setting [1]) and over 10000 nM at 5HT2B receptors (setting [2]). Moreover, the Emax on 5HT2C receptors (read-out: Emax) was 80%; on 5HT2B receptors (setting [3]) it was “inactive”.
With `CN1C[C@H]2CNC(=O)c3cc(-c4cccnc4)ccc3[C@@H]2C1` (relative stereo) [Example 143, Trans-2-methyl-8-(pyridin-3-yl)-1,2,3,3a,4,5-hexahydrobenzo[e]pyrrolo[3,4-c]azepin-6(10bH)-one], the EC50 on 5HT2C receptors (setting [1]) was 300 nM; on 5HT2B receptors (setting [2]), over 10000 nM. For the same compound, the values for the Emax on 5HT2C receptors and at 5HT2B receptors (setting [3]) were over 120% and “inactive”, respectively.
As for `Nc1ccc2c(c1)C(=O)NC[C@@H]1CNC[C@@H]21` (relative stereo) [Example 144, Trans-8-amino-1,2,3,3a,4,5-hexahydrobenzo[e]pyrrolo[3,4-c]azepin-6(10bH)-one], the Emax at 5HT2C receptors is over 120%; at 5HT2B receptors (CHO-K1), 60%. Moreover, the EC50 was found to be 100 nM on 5HT2C receptors (EC50, 5-HT2C agonist activity) and 1000 nM at 5HT2B receptors (EC50, 5-HT2B agonist activity).
Turning to `Nc1ccc2c(c1)C(=O)NC[C@@H]1CNC[C@H]21` (relative stereo) [Example 145, Cis-8-amino-1,2,3,3a,4,5-hexahydrobenzo[e]pyrrolo[3,4-c]azepin-6(10bH)-one], the maximum response (Emax) on 5HT2C receptors was 15%; at 5HT2B receptors (setting [3]), “inactive”. In addition, the EC50 is 3000 nM at 5HT2C receptors (EC50, 5-HT2C agonist activity) and over 10000 nM on 5HT2B receptors (EC50, 5-HT2B agonist activity).
In the case of `O=C1NC[C@@H]2CNC[C@H]2c2ccc(OCc3cccc(F)c3)cc21` (relative stereo) [Example 146, Trans-8-(3-fluorobenzyloxy)-1,2,3,3a,4,5-hexahydrobenzo[e]pyrrolo[3,4-c]azepin-6(10bH)-one], the Emax on 5HT2C receptors was over 120%; on 5HT2B receptors (CHO-K1) it was 15%. Moreover, the EC50 at 5HT2C receptors (EC50, 5-HT2C agonist activity) is 0.8 nM; at 5HT2B receptors (EC50, 5-HT2B agonist activity), 1000 nM.
In the case of `O=C1NC[C@@H]2CNC[C@H]2c2ccc(OCc3ccccc3F)cc21` (relative stereo) [Example 147, Trans-8-(2-fluorobenzyloxy)-1,2,3,3a,4,5-hexahydrobenzo[e]pyrrolo[3,4-c]azepin-6(10bH)-one], the Emax at 5HT2C receptors was over 120%; at 5HT2B receptors (setting [3]) it was “inactive”. Besides, the EC50 on 5HT2B receptors (EC50, 5-HT2B agonist activity) is over 10000 nM.
For the compound `O=C1NC[C@@H]2CNC[C@H]2c2ccc(OCc3ccccc3C(F)(F)F)cc21` (relative stereo) [Example 148, Trans-8-(2-(trifluoromethyl)benzyloxy)-1,2,3,3a,4,5-hexahydrobenzo[e]pyrrolo[3,4-c]azepin-6(10bH)-one], the concentration for a half-maximal effect (EC50) was 0.9 nM on 5HT2C receptors (setting [1]) and over 10000 nM at 5HT2B receptors (setting [2]). In addition, the Emax on 5HT2C receptors (read-out: Emax) was over 120%; on 5HT2B receptors (setting [3]), “inactive”.
Turning to `O=C1NC[C@@H]2CN(Cc3ccccc3)C[C@H]2c2ncccc21` (relative stereo) [Example 151, Trans-9-benzyl-7,7a,8,9,10,10a-hexahydropyrido[2,3-e]pyrrolo[3,4-c]azepin-5(6H)-one], the Emax at 5HT2C receptors was over 120%; on 5HT2B receptors (setting [3]), “inactive”. For the same compound, the EC50 at 5HT2C receptors (EC50, 5-HT2C agonist activity) was 70 nM; at 5HT2B receptors (EC50, 5-HT2B agonist activity) it was over 10000 nM.
For `O=C1NC[C@@H]2CN(Cc3ccccc3)C[C@H]2c2cnccc21` (relative stereo) [Example 152, Trans-2-benzyl-1,2,3,3a,4,5-hexahydropyrido[3,4-e]pyrrolo[3,4-c]azepin-6(10bH)-one], the EC50 is 2000 nM at 5HT2C receptors (setting [1]) and over 10000 nM at 5HT2B receptors (setting [2]). The values for the maximal response (Emax) on 5HT2C receptors and at 5HT2B receptors (setting [3]) were 50% and “inactive”, respectively.
Take `O=C1NC[C@@H]2CNC[C@H]2c2ncccc21` (relative stereo) [Example 153, Trans-7,7a,8,9,10,10a-hexahydropyrido[2,3-e]pyrrolo[3,4-c]azepin-5(6H)-one]: the Emax at 5HT2C receptors is over 120%; on 5HT2B receptors (CHO-K1), 30%. The concentration for a half-maximal effect (EC50) at 5HT2C receptors (EC50, 5-HT2C agonist activity) is 80 nM; on 5HT2B receptors (EC50, 5-HT2B agonist activity), over 10000 nM.
As to `O=C1NC[C@@H]2CN(Cc3ccccc3)C[C@H]2c2cccnc21` (relative stereo) [Example 154, Trans-2-benzyl-1,2,3,3a,4,5-hexahydropyrido[3,2-e]pyrrolo[3,4-c]azepin-6(10bH)-one], the EC50 is 2000 nM on 5HT2C receptors (setting [1]) and over 10000 nM on 5HT2B receptors (setting [2]). The Emax at 5HT2C receptors is 90%; at 5HT2B receptors (setting [3]), “inactive”.
For the compound `O=C1NC[C@@H]2CNC[C@H]2c2cccnc21` (relative stereo) [Example 157, Trans-1,2,3,3a,4,5-hexahydropyrido[3,2-e]pyrrolo[3,4-c]azepin-6(10bH)-one], the EC50 on 5HT2C receptors (setting [1]) was 3000 nM; at 5HT2B receptors (setting [2]), over 10000 nM. For the same compound, the figures for the Emax on 5HT2C receptors and on 5HT2B receptors (setting [3]) were 110% and “inactive”, respectively.
Turning to `CN1C[C@H]2CNC(=O)c3cc(OCc4ccccc4F)ccc3[C@@H]2C1` (relative stereo) [Example 164, Trans-8-(2-fluorobenzyloxy)-2-methyl-1,2,3,3a,4,5-hexahydrobenzo[e]pyrrolo[3,4-c]azepin-6(10bH)-one], the EC50 at 5HT2C receptors (setting [1]) was 700 nM; at 5HT2B receptors (setting [2]), over 10000 nM. The Emax was 50% at 5HT2C receptors (read-out: Emax) and “inactive” on 5HT2B receptors (setting [3]).
On to `CCC(C)Oc1ccc2c(c1)C(=O)NC[C@@H]1CNC[C@@H]21` (relative stereo) [Example 165, Trans-8-sec-butoxy-1,2,3,3a,4,5-hexahydrobenzo[e]pyrrolo[3,4-c]azepin-6(10bH)-one], for which the Emax on 5HT2C receptors is over 120%; at 5HT2B receptors (setting [3]), “inactive”. The EC50 at 5HT2C receptors (EC50, 5-HT2C agonist activity) was 80 nM; on 5HT2B receptors (EC50, 5-HT2B agonist activity) it was over 10000 nM.
